“And” between values parts separate entries of the source, which are not always exact repeats. Equal entries are not always repeated.
Tests used:
COVID-19 [1] = conditions: in vivo; cited from earlier work
COVID-19 [2] = conditions: hospitalized patients; cited from earlier work
SARS-CoV-2 [3] = conditions: human, in vivo
SARS-CoV-2 [4] = tested on: SARS-CoV-2

Compound | benefit for treatment of COVID-19 (COVID-19 [1]) | effect on 28-day mortality or the in-hospital course of COVID-19 (COVID-19 [2]) | infection for COVID 19 at follow-up (SARS-CoV-2 [3]) | use of the therapy in respiratory diseases including SARS-COVID19 infections (SARS-CoV-2 [4]; elders, adults and children, most of them immune depressed patients) | new infection for COVID 19 at follow-up (SARS-CoV-2 [4]; human, in vivo) | time to recovery (SARS-CoV-2 [4]; human, in vivo)
CCN(CCO)CCCC(C)Nc1ccnc2cc(Cl)ccc12 (stereo not shown) [hydroxychloroquine] | not been shown to offer any benefit | little or no effect |  |  |  | 
O=O [oxygen] |  |  | no infection for COVID 19 has been developed | satisfactory used | no new infection for COVID 19 has developed | 5 days and 3 days
lopinavir/ritonavir |  | little or no effect |  |  |  | 

— patent US20230030607A1, “Novel oxygen pulse therapy method for treating COVID19 and viral, bacterial, fungal or parasitic respiratory and other diseases” (priority 2021, published 2023)
